Assay results from US10577365B2, “Derivatives of quinoline as inhibitors of DYRK1A and/or DYRK1B kinases” (Felicitex Therapeutics, Inc., priority 2016, dated 2020).
Structures can show the parent of a compound that is named as a salt. Where two headings read alike, the source gives them in different places.

Key:
[1] = target: T1, DYRK1B (Homo sapiens, UniProt Q9Y463); assay: DYRK1B in vitro kinase assay (ADP-Glo); type: biochemical
T1 construct: purchased Carna Bioscence (Carna Biosciences) 04-131
Procedure: The compounds of the present invention were tested for their inhibitory activity against DYRK1A and DYRK1B kinases once or several times. When tested more than once, the data are reported herein as average value, wherein the average value, also referred to as the mean value, represents the sum of obtained values divided by the number of times tested. DYRK-inhibitory activity of the compounds of the present invention was tested using the ADP-Glo™ assay as described in the following paragraphs. The procedure for determining the IC50 values with the ADP-Glo™ assay in in vitro kinase assays consists of two parts: […] Kinase reaction performed under optimized conditions; 2. Detection of ADP as a product of the reaction using ADP-Glo™ system (Promega). The tested compounds indicated in Table 5 below were dissolved in DMSO, then transferred to the V-bottom PP plate to perform nine serial dilutions (in order to obtain dose-response curves) in 25% DMSO, as indicated in Table 5 below. The optimized conditions for performing DYRK1B in vitro kinase assay were as follows: [table] For compound testing, the following protocol was used: two mixes were prepared on ice, Mix 1 containing substrate, ATP and reaction buffer and Mix 2 containing reaction buffer and the kinase. 15 μL per well of Mix 1 was transferred to wells of a 96-well plate. […] Total reaction volume was 30 μL per well. The experiment was performed in duplicate for each data point being examined. Dose response curve for the positive control was carried out on each assay plate by adding the reference inhibitory compound staurosporine. For each test, three controls were also included: (i) 30 μL of the reaction mixture containing: reaction buffer, ATP, kinase, DMSO without substrate (quasi-positive control); (ii) 30 μL of the reaction mixture containing reaction buffer, substrate, ATP, DMSO without kinase (background control); (iii) 30 μL of the reaction mixture containing reaction buffer, substrate, kinase, ATP, DMSO (vehicle control). Final concentration of DMSO in the reaction was 2%. To detect the ADP amount produced during the kinase reaction, the commercially available kit ADP-Glo™ Kinase Assay (Promega, cat. No # V9103) was used. The protocol used for the detection was based on the Technical Bulletin of the ADP-Glo™ Kinase Assay (Promega) and was adapted to 96-well plate containing 30 μL reaction mixture as explained below. 30 μL of ADP-Glo™ Reagent was added to each well of a 96 well plate containing 30 μL of reaction mixture to terminate the kinase reaction and deplete the remaining ATP. The plate was incubated for 60 minutes on a shaker at rt. 60 μL of Kinase Detection Solution was then added to each well of 96-well plate containing 60 μL of the solution to convert ADP to ATP and to allow the newly synthesized ATP to be measured using a luciferase/luciferin reaction (ratio of kinase reaction volume to ADP Glo™ Reagent volume to Kinase Detection Solution volume was maintained at 1:1:2). The plate was incubated for 40 minutes on a shaker at rt, protected from light. Luminescence was measured in the plate reader, wherein the luminescent signal is proportional to the ADP concentration produced and thus correlates with kinase activity. After data normalization to controls (complete reaction mix and no-substrate control) and transforming X values (test compound concentrations) using: X=log(X), IC50 values were determined, using the GraphPad Prism 6.0 [log(agonist) vs. normalized response—Variable slope].

[2] = target: T2, DYRK1A (Homo sapiens, UniProt Q13627); assay: DYRK1A in vitro kinase assay (ADP-Glo); type: biochemical; details: ATP 70 μM (Km), substrate 3 μM, enzyme 2 nM or 0.7 nM, 30 min, rt
T2 construct: purchased Carna Bioscence (Carna Biosciences) 04-130
Procedure: The compounds of the present invention were tested for their inhibitory activity against DYRK1A and DYRK1B kinases once or several times. When tested more than once, the data are reported herein as average value, wherein the average value, also referred to as the mean value, represents the sum of obtained values divided by the number of times tested.
DYRK-inhibitory activity of the compounds of the present invention was tested using the ADP-Glo™ assay as described in the following paragraphs. The procedure for determining the IC50 values with the ADP-Glo™ assay in in vitro kinase assays consists of two parts:
1. Kinase reaction performed under optimized conditions;
2. Detection of ADP as a product of the reaction using ADP-Glo™ system (Promega).
The tested compounds indicated in Table 5 below were dissolved in DMSO, then transferred to the V-bottom PP plate to perform nine serial dilutions (in order to obtain dose-response curves) in 25% DMSO, as indicated in Table 5 below.
The optimized conditions for performing DYRK1A in vitro kinase assay were as follows:
For compound testing, the following protocol was used: two mixes were prepared on ice, Mix 1 containing substrate, ATP and reaction buffer and Mix 2 containing reaction buffer and the kinase. 15 μL per well of Mix 1 was transferred to wells of a 96-well plate. Next, 2.5 μL of the pre-diluted compound to be tested was added to Mix 1, followed by the addition of 12.5 μL of Mix 2. Total reaction volume was 30 μL per well. The experiment was performed in duplicate for each data point being examined. Dose response curve for the positive control was carried out on each assay plate by adding the reference inhibitory compound staurosporine. For each test, three controls were also included: (i) 30 μL of the reaction mixture containing: reaction buffer, ATP, kinase, DMSO without substrate (quasi-positive control); (ii) 30 μL of the reaction mixture containing reaction buffer, substrate, ATP, DMSO without kinase (background control); (iii) 30 μL of the reaction mixture containing reaction buffer, substrate, kinase, ATP, DMSO (vehicle control). Final concentration of DMSO in the reaction was 2%. To detect the ADP amount produced during the kinase reaction, the commercially available kit ADP-Glo™ Kinase Assay (Promega, cat. No # V9103) was used. The protocol used for the detection was based on the Technical Bulletin of the ADP-Glo™ Kinase Assay (Promega) and was adapted to 96-well plate containing 30 μL reaction mixture as explained below.
30 μL of ADP-Glo™ Reagent was added to each well of a 96 well plate containing 30 μL of reaction mixture to terminate the kinase reaction and deplete the remaining ATP. The plate was incubated for 60 minutes on a shaker at rt. 60 μL of Kinase Detection Solution was then added to each well of 96-well plate containing 60 μL of the solution to convert ADP to ATP and to allow the newly synthesized ATP to be measured using a luciferase/luciferin reaction (ratio of kinase reaction volume to ADP Glo™ Reagent volume to Kinase Detection Solution volume was maintained at 1:1:2). The plate was incubated for 40 minutes on a shaker at rt, protected from light. Luminescence was measured in the plate reader, wherein the luminescent signal is proportional to the ADP concentration produced and thus correlates with kinase activity.
After data normalization to controls (complete reaction mix and no-substrate control) and transforming X values (test compound concentrations) using: X=log(X), IC50 values were determined, using the GraphPad Prism 6.0 [log(agonist) vs. normalized response—Variable slope].

[3] = ADP-Glo assay, ATP 15 μM (Km), substrate 7 μM, enzyme 1 nM or 0.3 nM, 1 h, rt, read-out: DYRK1B IC50

T1 sequence (Q9Y463 whole entry): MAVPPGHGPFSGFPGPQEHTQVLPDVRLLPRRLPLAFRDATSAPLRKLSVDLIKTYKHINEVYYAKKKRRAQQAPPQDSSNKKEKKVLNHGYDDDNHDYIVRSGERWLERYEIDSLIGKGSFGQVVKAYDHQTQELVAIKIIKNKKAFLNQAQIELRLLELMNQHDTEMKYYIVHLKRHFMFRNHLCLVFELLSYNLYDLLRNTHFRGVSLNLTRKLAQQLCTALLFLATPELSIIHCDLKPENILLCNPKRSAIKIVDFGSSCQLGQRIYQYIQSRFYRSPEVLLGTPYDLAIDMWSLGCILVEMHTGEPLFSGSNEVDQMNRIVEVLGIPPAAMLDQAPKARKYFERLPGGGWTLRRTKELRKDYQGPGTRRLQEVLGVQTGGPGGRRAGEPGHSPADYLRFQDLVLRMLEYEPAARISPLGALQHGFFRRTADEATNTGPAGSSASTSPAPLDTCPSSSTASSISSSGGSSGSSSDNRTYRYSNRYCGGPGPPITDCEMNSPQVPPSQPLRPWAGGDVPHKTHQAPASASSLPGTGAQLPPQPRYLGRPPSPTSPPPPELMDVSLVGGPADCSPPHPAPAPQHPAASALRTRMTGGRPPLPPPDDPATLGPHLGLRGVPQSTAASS

Row | SMILES | IC50 [1, 3] | IC50 [2] | IC50 [1]
1 | C=CC1CN2CCC1CC2[C@H](O)c1ccnc2ccc(-c3c[nH]c4ncccc34)cc12 (stereo in doubt) [Example 9, {5-Ethenyl-1-azabicyclo[2.2.2]octan-2-yl}(6-{1H-pyrrolo[2,3-b]pyridin-3-yl}quinolin-4-yl)methanol] | < 10 nM | < 10 nM | 
2 | Clc1ccnc2ccc(-c3c[nH]c4ncccc34)cc12 [Example 1, 4-Chloro-6-{1H-pyrrolo[2,3-b]pyridin-3-yl}quinoline] |  | 10 to 100 nM | 
3 | N[C@H]1CCCN(c2ccnc3ccc(-c4c[nH]c5ncccc45)cc23)C1 [Example 3, (3S)-1-(6-{1H-Pyrrolo[2,3-b]pyridin-3-yl}quinolin-4-yl)piperidin-3-amine] | < 10 nM | < 10 nM | 
4 | c1cnc2[nH]cc(-c3ccc4nccc(-c5ccncc5)c4c3)c2c1 [Example 7, 4-(Pyridin-4-yl)-6-{1H-pyrrolo[2,3-b]pyridin-3-yl}quinoline] | < 10 nM | < 10 nM | 
5 | CN1CCC(Nc2ccnc3ccc(-c4c[nH]c5ncccc45)cc23)CC1 [Example 10, N-(1-Methylpiperidin-4-yl)-6-{1H-pyrrolo[2,3-b]pyridin-3-yl}quinolin-4-amine] | 10 to 100 nM |  | 
6 | Clc1cc(-c2c[nH]c3ncccc23)cc2cccnc12 [Example 11, 8-Chloro-6-{1H-pyrrolo[2,3-b]pyridin-3-yl}quinoline hydrochloride] | < 10 nM | < 10 nM | 
7 | Cc1cc(-c2c[nH]c3ncccc23)cc2cccnc12 [Example 12, 8-Methyl-6-{1H-pyrrolo[2,3-b]pyridin-3-yl}quinoline hydrochloride] |  |  | 10 to 100 nM
8 | COc1cc(-c2c[nH]c3ncccc23)cc2cccnc12 [Example 15, 8-Methoxy-6-{1H-pyrrolo[2,3-b]pyridin-3-yl}quinoline] | 10 to 100 nM |  | 
9 | c1cnc2[nH]cc(-c3ccc4ncc(NCc5ccoc5)cc4c3)c2c1 [Example 16, N-(Furan-3-ylmethyl)-6-{1H-pyrrolo[2,3-b]pyridin-3-yl}quinolin-3-amine] | < 10 nM | < 10 nM | 
10 | Cc1cc(-c2c[nH]c3ncccc23)cc2c(-c3cccnc3)ccnc12 [Example 18, 8-Methyl-4-(pyridin-3-yl)-6-{1H-pyrrolo[2,3-b]pyridin-3-yl}quinoline] | 10 to 100 nM |  | 
11 | C=CCN(C)C(=O)c1cnc2[nH]cc(-c3ccc4nccc(Cl)c4c3)c2c1 [Example 20, 3-(4-Chloroquinolin-6-yl)-N-methyl-N-(prop-2-en-1-yl)-1H-pyrrolo[2,3-b]pyridine-5-carboxamide] | < 10 nM | 10 to 100 nM | 
12 | CNC(=O)c1cnc2[nH]cc(-c3cc(OC)c4ncccc4c3)c2c1 [Example 29, 3-(8-Methoxyquinolin-6-yl)-N-methyl-1H-pyrrolo[2,3-b]pyridine-5-carboxamide] | 10 to 100 nM |  | 
13 | CN1CCC(Nc2c(C#N)cnc3ccc(-c4c[nH]c5ncccc45)cc23)CC1 [Example 64, 4-[(1-Methylpiperidin-4-yl)amino]-6-{1H-pyrrolo[2,3-b]pyridin-3-yl}quinoline-3-carbonitrile] | 10 to 100 nM |  | 

Further lines, with some results ahead:

Row | IC50 [1, 3] | IC50 [2] | SMILES | IC50 [1]
14 | < 10 nM | < 10 nM | c1cnc2ccc(-c3c[nH]c4ncccc34)cc2c1 [Example 2, 6-{1H-Pyrrolo[2,3-b]pyridin-3-yl}quinoline] | 
15 |  | > 100 nM | N[C@H]1CC[C@H](Nc2ccnc3ccc(-c4c[nH]c5ncccc45)cc23)CC1 [Example 4, trans-1-N-(6-{1H-Pyrrolo[2,3-b]pyridin-3-yl}quinolin-4-yl)cyclohexane-1,4-diamine] | 
16 |  | < 10 nM | N[C@H]1CCN(c2ccnc3ccc(-c4c[nH]c5ncccc45)cc23)C1 [Example 5, (3S)-1-(6-{1H-Pyrrolo[2,3-b]pyridin-3-yl}quinolin-4-yl)pyrrolidin-3-amine] | 
17 | < 10 nM | < 10 nM | c1cncc(-c2ccnc3ccc(-c4c[nH]c5ncccc45)cc23)c1 [Example 6, 4-(Pyridin-3-yl)-6-{1H-pyrrolo[2,3-b]pyridin-3-yl}quinoline] | 
18 | < 10 nM | < 10 nM | c1ccc(-c2ccnc3ccc(-c4c[nH]c5ncccc45)cc23)cc1 [Example 8, 4-Phenyl-6-{1H-pyrrolo[2,3-b]pyridin-3-yl}quinoline] | 
19 | < 10 nM | < 10 nM | Fc1cc(-c2c[nH]c3ncccc23)cc2cccnc12 [Example 13, 8-Fluoro-6-{1H-pyrrolo[2,3-b]pyridin-3-yl}quinoline] | 
20 | 10 to 100 nM | > 100 nM | FC(F)(F)Oc1cc(-c2c[nH]c3ncccc23)cc2cccnc12 [Example 14, 6-{1H-Pyrrolo[2,3-b]pyridin-3-yl}-8-(trifluoromethoxy)quinoline] | 
21 | > 100 nM | > 100 nM | Cc1cc(-c2c[nH]c3ncccc23)cc2c(-c3ccccc3)ccnc12 [Example 17, 8-Methyl-4-phenyl-6-{1H-pyrrolo[2,3-b]pyridin-3-yl}quinoline] | 
22 | < 10 nM | < 10 nM | Fc1cc(-c2c[nH]c3ncccc23)cc2c(-c3cccnc3)ccnc12 [Example 19, 8-Fluoro-4-(pyridin-3-yl)-6-{1H-pyrrolo[2,3-b]pyridin-3-yl}quinoline] | 
23 | 10 to 100 nM |  | CNC(=O)c1cnc2[nH]cc(-c3cc(C)c4nccc(-c5cccnc5)c4c3)c2c1 [Example 42, N-Methyl-3-[8-methyl-4-(pyridin-3-yl)quinolin-6-yl]-1H-pyrrolo[2,3-b]pyridine-5-carboxamide] | 
